Reference: patent publication US6147068A, “Lipophilic polyamine esters for the site specific delivery of nitric oxide in pharmaceutical use” (The University of Akron, priority 1998, dated 2000)

Assay: Nitric oxide release profile of NONOates (nitric oxide analyzer)
Type: physicochemical
Experimental: Using a Monitor Labs Model 8440 Nitric Oxide Analyzer, interfaced with an HP 3396 A Chromatography Integrator, the nitric oxide release from the above synthesized NONOates was measured. […] Teflon® flow meters were inserted at the beginning of the circuit just before entry into the analyzer, and a helium tank with regulator was connected to the first flow meter.
The release profile was performed by adding about 3 to about 8 mg of the NO donor molecules prepared above to 25 ml of phosphate-buffered saline (PBS) (pH 7.4) in an impinger bottle that was subjected to continuous stirring. Varying amounts of the lung surfactant Survanta was added to certain samples, as were the surfactants Tween® 20 and Tween® 80. Tween® is available from Fisher Scientific Company, Fair Lawn, N.J. Still in other examples, the NONOates were simply dissolved in THF. Although the NONOates are insoluble in aqueous solution, sonication pulverized the compound adequately to produce fine particles that increased the surface area of the compound allowing a suspension to form. Once the impinger bottle was assembled, it was held in a water sonicator bath and sonicated until the insoluble sample was pulverized into fine particles or an emulsion. The amount of liberated NO was determined by the daily or timely flushing of helium through the solution and into the analyzer. Typically, measurements were taken every 2-4 hours during the first 18 hours and then every 12 hours thereafter. Eventually, readings only needed to be taken every 24 hours as the end of the release profile was approached. Helium gas was flushed through the system at 12 psig and the first flow meter was set to 150 ml/min. The second flow meter was adjusted to allow maximum flow. The released data was then used to compile the release profiles represented in FIGS. 3-10. The release profiles as represented in FIGS. 3-10 depict NO release from the NONOates in nmol NO/mg NONOate versus time in hours.
Based on these release profiles, the half-life and % Release for each NONOate prepared above was calculated and is represented in Table I, which represents NO release in PBS at pH 7.4.

| Molecule | % Release (NO) (PBS, pH 7.4) | half-life (1% survanta, half-life (NO release)) [h] | half-life (5% & 10% survanta, half-life (NO release)) [h] | half-life (5% tween 20, half-life (NO release)) [h] | half-life (10% tween 20, half-life (NO release)) [h] | half-life (NO release) (pbs, pH 7.4) | half-life (pbs, pH 7.4, half-life (NO release)) [h] | half-life (thf, pH 1, half-life (NO release)) [h] |
| --- | --- | --- | --- | --- | --- | --- | --- | --- |
| Dihexadecanylspermate-NONOate [DiHSNO] | about 7.4% | – | – | – | – | – | – | – |
| CC(C)CCC[C@@H](C)[C@H]1CC[C@H]2[C@@H]3CC=C4C[C@@H](OC(=O)CCN(CCCCN)[N+]([O-])=NO)CC[C@]4(C)[C@H]3CC[C@]12C [CPNO, Cholesterylputreanine-NONOate] | – | 62 | 39 | 104 | 72 | about 60 hr | 60 | 21 |
